Results on two molecules are retold here after article PMC6189639 (Biochemistry, 2018).

Holding throughout (experiment): X-ray crystal structure of complex, […] A
What all share (type): binding

One test addresses tmMBP3 (Thermotoga maritima, UniProt G4FGN8). Conditions: co-crystal, 0.4 M sodium thiocyanate; substrate site S1-S2.
Another test concerns the target tmMBP1 (Thermotoga maritima, UniProt Q9X0T1). Conditions: co-crystal, 0.1 M sodium citrate; substrate site S1-S4.
For a further test, the target named is tmMBP2 (Thermotoga maritima, UniProt Q9S5Y1). Particulars: co-crystal, bis-tris pH 5.5; substrate site S1-S4.

Consider `OC[C@H]1O[C@H](O[C@H]2[C@H](O)[C@@H](O)C(O)O[C@@H]2CO)[C@H](O)[C@@H](O)[C@@H]1O` (stereo partly drawn) [maltose], for which the “X-ray crystal structure of complex, 2.15 A; SAXS” value on tmMBP3 is recorded as “tmMBP3-maltose complex (6DTQ)”.
Turning to `OC[C@H]1O[C@H](O[C@H]2[C@H](O)[C@@H](O)[C@@H](O[C@H]3[C@H](O)[C@@H](O)[C@@H](O[C@H]4[C@H](O)[C@@H](O)C(O)O[C@@H]4CO)O[C@@H]3CO)O[C@@H]2CO)[C@H](O)[C@@H](O)[C@@H]1O` (stereo partly drawn) [maltotetraose], the “X-ray crystal structure of complex, 1.50 A; SAXS” value on tmMBP1 is reported as “tmMBP1-maltotetraose complex (6DTU)”; on tmMBP2, “tmMBP2-maltotetraose complex (6DTS)”.
